Common to all, as to format: cell-based
Data set [1] deals with SH-SY5Y. Kind of data set: Cytotoxicity against human SH-SY5Y cells at 10 to 100 uM after 24 hrs by MTT assay. For orientation: Formazan colour is commonly taken as a measure of viable cells.
The target of data set [2] is T1, Low-density lipoprotein receptor-related protein 6 (Homo sapiens, UniProt O75581). Kind of data set: Binding affinity to human LRP6 expressed in HEK293 cells assessed as inhibition of DKK1/LRP6 interaction using compound pre-treated DKK1 conditioned media after 2 hrs by fluorescence microscopic analysis.
T1 sequence (O75581 whole entry): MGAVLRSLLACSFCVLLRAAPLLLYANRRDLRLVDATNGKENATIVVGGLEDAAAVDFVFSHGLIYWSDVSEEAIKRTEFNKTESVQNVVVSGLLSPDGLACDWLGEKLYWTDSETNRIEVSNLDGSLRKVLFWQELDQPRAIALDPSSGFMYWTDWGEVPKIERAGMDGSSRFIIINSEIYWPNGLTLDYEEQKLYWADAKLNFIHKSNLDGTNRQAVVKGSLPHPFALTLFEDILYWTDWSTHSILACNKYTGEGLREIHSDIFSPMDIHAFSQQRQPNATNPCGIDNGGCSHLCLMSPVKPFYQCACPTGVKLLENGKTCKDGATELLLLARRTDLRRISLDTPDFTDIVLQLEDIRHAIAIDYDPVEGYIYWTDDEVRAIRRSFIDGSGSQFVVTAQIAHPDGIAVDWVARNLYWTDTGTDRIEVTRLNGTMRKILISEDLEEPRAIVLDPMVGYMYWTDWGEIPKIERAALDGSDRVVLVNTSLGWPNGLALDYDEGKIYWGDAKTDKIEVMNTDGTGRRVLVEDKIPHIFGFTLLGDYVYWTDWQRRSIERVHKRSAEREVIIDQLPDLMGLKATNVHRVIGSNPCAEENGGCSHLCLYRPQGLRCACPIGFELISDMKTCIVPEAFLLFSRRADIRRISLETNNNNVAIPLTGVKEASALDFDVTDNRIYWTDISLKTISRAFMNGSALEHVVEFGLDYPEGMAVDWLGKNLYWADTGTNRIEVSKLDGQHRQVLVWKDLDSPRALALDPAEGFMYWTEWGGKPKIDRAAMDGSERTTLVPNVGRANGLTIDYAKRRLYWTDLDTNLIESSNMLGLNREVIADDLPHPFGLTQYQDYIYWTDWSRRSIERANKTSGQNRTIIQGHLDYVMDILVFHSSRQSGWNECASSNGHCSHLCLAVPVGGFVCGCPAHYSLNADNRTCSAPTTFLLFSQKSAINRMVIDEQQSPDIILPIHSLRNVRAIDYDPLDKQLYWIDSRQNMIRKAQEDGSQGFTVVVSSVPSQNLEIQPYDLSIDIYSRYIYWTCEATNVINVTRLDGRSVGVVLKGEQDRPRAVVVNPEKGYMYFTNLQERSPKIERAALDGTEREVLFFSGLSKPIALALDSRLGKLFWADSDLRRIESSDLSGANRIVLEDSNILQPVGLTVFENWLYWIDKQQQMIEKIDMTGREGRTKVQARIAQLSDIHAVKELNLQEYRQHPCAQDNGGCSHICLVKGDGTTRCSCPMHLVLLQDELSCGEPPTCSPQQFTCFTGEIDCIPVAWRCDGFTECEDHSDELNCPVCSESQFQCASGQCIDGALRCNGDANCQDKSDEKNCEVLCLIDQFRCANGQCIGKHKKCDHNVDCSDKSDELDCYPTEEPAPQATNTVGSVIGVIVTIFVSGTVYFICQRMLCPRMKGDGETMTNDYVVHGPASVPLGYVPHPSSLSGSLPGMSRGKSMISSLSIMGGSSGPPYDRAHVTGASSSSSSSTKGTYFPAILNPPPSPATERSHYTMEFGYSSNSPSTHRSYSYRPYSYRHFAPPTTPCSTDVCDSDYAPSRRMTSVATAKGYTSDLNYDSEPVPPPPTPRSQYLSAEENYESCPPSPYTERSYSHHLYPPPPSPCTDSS
For data set [3], the target named is T1, Low-density lipoprotein receptor-related protein 6. Nature of the data set: Binding affinity to LRP6 in human SH-SY5Y cells assessed as DKK1/LRP6 interaction-mediated increase in beta-catenin level at 10 uM incubated for 1 hr using compound pre-treated DKK1 conditioned media by Western blot analysis. On the technique in general: Immunoblotting shows a protein as a band on a membrane.

For data set [4] the target is unchanged. Kind of data set: Binding affinity to LRP6 in human SH-SY5Y cells assessed as inhibition of DKK1/LRP6 interaction-mediated tau phosphorylation at serine 396 at 10 uM incubated for 1 hr using compound pre-treated DKK1 conditioned media by Western blot analysis.

Calls of active or inactive are those of the source. No cut-off for these calls is given here.

Consider `COC(=O)c1c2nc3ccc(N(C)C)cc3oc-2c(O)c(=O)c1Nc1ccc(OC)cc1`, for which the Activity result in data set [1] was “Non-toxic”. In data set [2], the IC50 (commonly the concentration at which inhibition is half-maximal) was found to be 4.71 µM. Besides, the inhibition entry in data set [3] is “Active”.

Take `COC(=O)c1c2nc3ccc(N(C)C)cc3oc-2c(O)c(=O)c1NC1CCCCC1`: the Activity result in data set [1] is on record as “Non-toxic”. In addition, the IC50 in data set [2] is 4.06 µM. Further, the inhibition entry in data set [3] was “Active”.

As to `COC(=O)c1c2nc3ccc(N(C)C)cc3oc-2c(O)c(=O)c1NC1CCCC1`, the Activity entry in data set [1] is “Non-toxic”. Moreover, the IC50 in data set [2] worked out at 4.61 µM. Moreover, in data set [3], the inhibition entry was “Active”.

On to `COC(=O)c1c2nc3ccc(N(C)C)cc3oc-2c(O)c(=O)c1NCc1ccc(OC)cc1`, for which, in data set [1], the Activity entry is reported as “Non-toxic”. The IC50 in data set [2] is 4.33 µM. The inhibition result in data set [3] is “Active”.

Regarding `COC(=O)c1c2nc3ccc(N(C)C)cc3oc-2c(O)c(=O)c1N1CCCCC1`, the inhibition result in data set [4] and in data set [3] was “Active” throughout. In addition, the Activity entry in data set [1] is recorded as “Non-toxic”. Moreover, the IC50 in data set [2] worked out at 5.5 µM.

Turning to `COC(=O)c1c2nc3ccc(N(C)C)cc3oc-2c(O)c(=O)c1Nc1ccccc1`, the Activity entry in data set [1] is listed as “Non-toxic”. In addition, the IC50 in data set [2] was 6.16 µM. Moreover, the inhibition result in data set [3] was “Active”.

For the molecule `COC(=O)c1c2nc3ccc(N(C)C)cc3oc-2c(O)c(=O)c1Nc1ccc(C)cc1`, in data set [1], the Activity entry is “Non-toxic”. Besides, the IC50 in data set [2] worked out at 3.77 µM. For the same molecule, in data set [3], the inhibition result is “Active”.

With `CCCCOC(=O)c1c2nc3ccc(N(C)C)cc3oc-2c(O)c(=O)c1NCc1ccc(OC)cc1`, in data set [1], the Activity entry is on record as “Non-toxic”. The IC50 in data set [2] was 3.38 µM. In addition, the inhibition entry in data set [3] was “Active”.

`COC(=O)c1c2nc3ccc(N(C)C)cc3oc-2c(O)c(=O)c1Nc1ccc(Cl)c(Cl)c1`: the inhibition result in data set [4] and in data set [3] was “Active” in each case. Moreover, the Activity entry in data set [1] is listed as “Non-toxic”. In addition, in data set [2], the IC50 stood at 4.87 µM.

In the case of `COC(=O)c1c2nc3ccc(N(C)C)cc3oc-2c(O)c(=O)c1N1CCOCC1`, the Activity result in data set [1] is given as “Non-toxic”. In data set [2], the IC50 was found to be 3.74 µM. The inhibition entry in data set [3] is “Active”.

As for `COC(=O)c1c2nc3ccc(N(C)C)cc3oc-2c(O)c(=O)c1N`, the inhibition entry in data set [4] and in data set [3] was “Active” throughout. In addition, in data set [1], the Activity entry is recorded as “Non-toxic”. Also, the IC50 in data set [2] amounted to 5.23 µM.

Source of the values: ChEMBL document CHEMBL3763125, “Discovery of novel phenoxazinone derivatives as DKK1/LRP6 interaction inhibitors: Synthesis, biological evaluation and structure-activity relationships” (Bioorg Med Chem, 2016).
